US12187742B2 (XRAD Therapeutics, Inc., priority 2018, dated 2025)
Counter-ions that a name gives are not always drawn.

What was measured:
ATM = ATM (Homo sapiens (Human), UniProt Q13315); assay: ATM in Cell Western Assay (pKAP1 in etoposide-treated MCF-7 cells); assay type: cell-based
In short: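 Cells received compounds in a 10-dose, 3-fold series from a 1 μM final top concentration, then 100 μM etoposide, for 1 hr at 37° C. They were then fixed with paraformaldehyde and permeabilized with 0.1% Triton X-100. After immunostaining, plates were scanned on an infrared imager.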

DNA-PK = DNA-PK (Homo sapiens (Human), UniProt P78527); assay: DNA-PK Enzyme-Linked Immunosorbent Assay (phosphorylation of GST-p53 (1-101) peptide); assay type: biochemical; conditions: ELISA
In short: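 ELISA with plate-bound GST-p53 (1-101) phosphorylated by DNA-PK (0.1 μg/mL final) with 20 μM ATP for 1 h at 25 °C. Compounds tested over 10 3-fold doses from 100 nM top final. Phospho-p53 Ser15 detected by antibody, HRP and TMB, absorbance at 450 nm.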

[1] = pKAP1 in etoposide-treated MCF-7 cells
[2] = MCF-7 cells, etoposide 100 μM, 1 hr, pKAP1 readout

ATM, sequence (Q13315 whole entry): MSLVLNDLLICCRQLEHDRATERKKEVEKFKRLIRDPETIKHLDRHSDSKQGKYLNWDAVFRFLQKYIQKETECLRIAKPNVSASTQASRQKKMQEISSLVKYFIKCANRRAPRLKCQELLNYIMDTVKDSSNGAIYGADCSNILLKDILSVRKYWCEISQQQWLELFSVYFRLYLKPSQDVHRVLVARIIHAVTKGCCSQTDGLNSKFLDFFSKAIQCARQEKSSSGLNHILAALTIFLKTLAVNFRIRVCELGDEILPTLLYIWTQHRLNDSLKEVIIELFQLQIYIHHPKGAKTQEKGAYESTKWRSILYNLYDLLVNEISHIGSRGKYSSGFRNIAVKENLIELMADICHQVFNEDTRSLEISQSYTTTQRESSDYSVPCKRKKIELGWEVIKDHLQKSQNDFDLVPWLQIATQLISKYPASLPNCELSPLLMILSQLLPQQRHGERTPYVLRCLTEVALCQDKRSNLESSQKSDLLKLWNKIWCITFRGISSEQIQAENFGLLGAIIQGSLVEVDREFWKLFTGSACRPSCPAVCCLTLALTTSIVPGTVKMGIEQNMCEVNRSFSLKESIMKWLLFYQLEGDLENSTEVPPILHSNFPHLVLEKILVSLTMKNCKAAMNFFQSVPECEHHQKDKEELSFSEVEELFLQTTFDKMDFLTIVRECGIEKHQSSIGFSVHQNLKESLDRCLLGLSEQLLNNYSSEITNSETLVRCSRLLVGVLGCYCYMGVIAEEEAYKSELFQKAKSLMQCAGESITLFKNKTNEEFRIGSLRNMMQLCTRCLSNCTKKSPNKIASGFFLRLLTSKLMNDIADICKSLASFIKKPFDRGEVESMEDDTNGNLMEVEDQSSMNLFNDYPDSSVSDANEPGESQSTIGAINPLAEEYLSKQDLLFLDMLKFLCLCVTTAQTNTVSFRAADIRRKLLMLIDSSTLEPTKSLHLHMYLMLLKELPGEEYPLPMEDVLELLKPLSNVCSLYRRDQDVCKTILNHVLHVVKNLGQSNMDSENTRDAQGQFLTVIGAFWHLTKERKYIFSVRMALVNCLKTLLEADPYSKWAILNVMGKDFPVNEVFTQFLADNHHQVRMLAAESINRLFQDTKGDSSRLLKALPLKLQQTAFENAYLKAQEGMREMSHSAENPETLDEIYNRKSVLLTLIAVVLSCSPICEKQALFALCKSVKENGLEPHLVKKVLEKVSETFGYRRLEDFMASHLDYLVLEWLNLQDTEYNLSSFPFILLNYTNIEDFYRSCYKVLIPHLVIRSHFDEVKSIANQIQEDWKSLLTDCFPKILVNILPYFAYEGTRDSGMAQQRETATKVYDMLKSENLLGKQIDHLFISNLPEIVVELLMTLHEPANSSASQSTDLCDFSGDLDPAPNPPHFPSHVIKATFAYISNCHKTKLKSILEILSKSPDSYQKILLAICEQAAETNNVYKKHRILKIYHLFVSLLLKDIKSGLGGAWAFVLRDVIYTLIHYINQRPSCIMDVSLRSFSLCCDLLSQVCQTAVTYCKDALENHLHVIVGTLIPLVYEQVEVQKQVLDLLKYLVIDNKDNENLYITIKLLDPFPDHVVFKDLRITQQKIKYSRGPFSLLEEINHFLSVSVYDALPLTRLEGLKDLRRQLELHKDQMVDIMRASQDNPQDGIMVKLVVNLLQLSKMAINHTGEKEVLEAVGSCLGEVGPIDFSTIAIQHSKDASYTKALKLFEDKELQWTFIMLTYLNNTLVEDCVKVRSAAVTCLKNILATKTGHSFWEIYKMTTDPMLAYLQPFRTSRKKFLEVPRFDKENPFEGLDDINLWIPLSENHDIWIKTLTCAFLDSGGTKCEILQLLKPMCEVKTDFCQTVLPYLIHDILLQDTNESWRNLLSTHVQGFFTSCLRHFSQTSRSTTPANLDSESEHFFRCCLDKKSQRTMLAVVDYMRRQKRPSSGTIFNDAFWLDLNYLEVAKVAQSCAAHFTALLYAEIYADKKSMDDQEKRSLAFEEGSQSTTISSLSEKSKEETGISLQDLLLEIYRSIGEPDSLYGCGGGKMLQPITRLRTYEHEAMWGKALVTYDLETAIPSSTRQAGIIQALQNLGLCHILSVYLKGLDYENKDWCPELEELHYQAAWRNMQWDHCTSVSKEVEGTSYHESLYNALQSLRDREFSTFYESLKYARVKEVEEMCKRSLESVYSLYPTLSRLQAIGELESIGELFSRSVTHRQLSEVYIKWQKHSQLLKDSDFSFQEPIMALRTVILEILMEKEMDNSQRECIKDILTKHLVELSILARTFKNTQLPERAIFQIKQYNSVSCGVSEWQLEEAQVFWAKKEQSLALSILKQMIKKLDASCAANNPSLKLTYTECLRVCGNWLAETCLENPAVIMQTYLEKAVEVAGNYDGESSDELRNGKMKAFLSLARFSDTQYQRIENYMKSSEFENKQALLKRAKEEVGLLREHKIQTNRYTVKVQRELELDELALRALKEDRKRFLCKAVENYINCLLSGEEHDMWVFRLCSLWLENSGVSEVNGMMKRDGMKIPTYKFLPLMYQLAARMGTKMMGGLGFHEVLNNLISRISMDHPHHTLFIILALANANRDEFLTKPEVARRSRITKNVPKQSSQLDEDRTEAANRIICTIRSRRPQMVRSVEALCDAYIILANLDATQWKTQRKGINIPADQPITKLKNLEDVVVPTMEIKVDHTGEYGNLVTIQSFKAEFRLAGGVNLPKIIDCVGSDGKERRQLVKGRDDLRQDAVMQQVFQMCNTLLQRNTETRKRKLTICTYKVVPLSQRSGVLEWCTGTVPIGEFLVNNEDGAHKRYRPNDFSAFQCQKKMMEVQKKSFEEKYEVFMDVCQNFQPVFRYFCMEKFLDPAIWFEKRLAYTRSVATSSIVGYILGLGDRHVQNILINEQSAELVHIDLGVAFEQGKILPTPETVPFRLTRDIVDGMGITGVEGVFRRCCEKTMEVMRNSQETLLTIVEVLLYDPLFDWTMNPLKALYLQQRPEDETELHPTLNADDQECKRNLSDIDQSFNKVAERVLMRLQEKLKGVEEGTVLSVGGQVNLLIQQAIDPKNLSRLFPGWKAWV

Structure (SMILES) | IC50 (ATM; [1]) [nM] | IC50 (DNA-PK; 20 μM ATP) [nM] | IC50 (ATM; [2]) [nM] | IC50 (DNA-PK; ATP 20 μM) [nM]
COc1ccc(S(=O)(=O)Nc2cc(-c3ccc4ncc5c(c4c3)C3(CCC3)C(=O)N5C)cnc2OCCCN(C)C)cc1 [Example 144, N-(2-(3-(Dimethylamino)propoxy)-5-(3′-methyl-2′-oxo-2′,3′-dihydrospiro [cyclobutane-1,1′-pyrrolo[2,3-c]quinolin]-8′-yl)pyridin-3-yl)-4-methoxybenzenesulfonamide hydrochloride] | – | – | 1 to 100 | 1 to 100
CN1CCN(c2ncc(-c3ccc4ncc5c(c4c3)C3(CCC3)C(=O)N5C)cc2NS(=O)(=O)N(C)C)CC1 [Example 230, 8′-{5-[(Dimethylsulfamoyl)amino]-6-(4-methylpiperazin-1-yl)pyridin-3-yl}-3′-methyl-2′,3′-dihydrospiro[cyclobutane-1,1′-pyrrolo[2,3-c]quinoline]-2′-one] | – | – | 1 to 100 | < 0.5
CC(C)NCCOc1ncc(-c2cc3c4c(cnc3cc2F)N(C)C(=O)C42CN(c3ccc4c(c3)OCO4)C2)cc1NS(C)(=O)=O [Example 544, N-(5-(1-(Benzo[d][1,3]dioxol-5-yl)-7′-fluoro-3′-methyl-2′-oxo-2′,3′-dihydrospiro[azetidine-3,1′-pyrrolo[2,3-c]quinolin]-8′-yl)-2-(2-(isopropylamino)ethoxy)pyridin-3-yl)methanesulfonamide] | 1 to 100 | < 0.5 | – | –
CN1C(=O)C2(CC2)c2c1cnc1ccc(-c3cnc(OCCCN4CCCCC4)c(NS(=O)(=O)C4CC4)c3)cc21 [Example 68, N-(5-(3′-Methyl-2′-oxo-2′,3′-dibydrospiro[cyclopropane-1,1′-pyrrolo[2,3-c]quinolin]-8′-yl)-2-(3-(piperidin-1-yl)propoxy)pyridin-3-yl)cyclopropanesulfonamide] | – | – | 1 to 100 | < 0.5
CN1C(=O)C2(CCC2)c2c1cnc1ccc(-c3cnc(N4CCC(N5CCCCC5)CC4)c(NS(=O)(=O)c4ccccc4)c3)cc21 [Example 155, N-(2-([1,4′-Bipiperidin]-1′-yl)-5-(3′-methyl-2′-oxo-2′,3′-dihydrospiro[cyclobulane-1,1′-pyrrolo[2,3-c]quinolin]-8′-yl)pyridin-3-yl)benzenesulfonamide hydrochloride] | – | – | 1 to 100 | 0.5 to 1
Cc1cc(-c2ccc3ncc4c(c3c2)C2(CC2)C(=O)N4C)cnc1OCCCN(C)C [Example 57, 8′-(6-(3-(Dimethylamino)propoxy)-5-methylpyridin-3-yl)-3′-methylspiro[cyclopropane-1,1′-pyrrolo[2,3-c]quinolin]-2′(3′-H)-one] | – | – | 1 to 100 | 1 to 100
CN(C)CCCOc1ncc(-c2ccc3ncc4c(c3c2)C2(CCC2)C(=O)N4C)cc1NS(=O)(=O)C1CCC1 [Example 253, N-(2-(3-(Dimethylamino)propoxy)-5-(3′-methyl-2′-oxo-2′,3′-dihydrospiro [cyclobutane-1,1′-pyrrolo[2,3-c]quinolin]-8′-yl)pyridin-3-yl) cyclobutanesulfonamide] | – | – | 1 to 100 | 1 to 100
CC(C)NCCOc1ncc(-c2cc3c4c(cnc3cc2F)N(C)C(=O)C42CCC2)cc1NS(=O)(=O)C1CC1 [Example 365, N-(5-(7′-Fluoro-3′-methyl-2′-oxo-2′,3′-dihydrospiro[cyclobutane-1,1′-pyrrolo[2,3-c]quinolin]-8′-yl)-2-(2-(isopropylamino)ethoxy)pyridin-3-yl)cyclopropanesulfonamide hydrochloride] | 1 to 100 | 1 to 100 | – | –
CN(C)CCCOc1ncc(-c2ccc3ncc4c(c3c2)C2(CCCCC2)C(=O)N4C)cc1NS(=O)(=O)c1ccccc1 [Example 3, N-(2-(3-(Dimethylamino)propoxy)-5-(3′-methyl-2′-oxo-2′,3′-dihydrospiro[cyclohexane-1,1′-pyrrolo[2,3-c]quinolin]-8′-yl)pyridin-3-yl) benzenesulfonamide] | – | – | 1 to 100 | 1 to 100
COc1ncc(-c2ccc3ncc4c(c3c2)C2(COC2)C(=O)N4C)cc1NS(=O)(=O)c1ccccc1 [Example 8, N-(2-Methoxy-5-(3′-methyl-2′-oxo-2′,3′-dihydrospiro[oxetane-3,1′-pyrrolo[2,3-c]quinolin]-8′-yl)pyridin-3-yl)benzenesulfonamide] | – | – | 1 to 100 | < 0.5
CN1C(=O)C2(CCC2)c2c1cnc1ccc(-c3cnc(N4CCC(N5CCCC(F)(F)C5)CC4)c(NS(C)(=O)=O)c3)cc21 [Example 251, N-(2-(3,3-Difluoro-[1,4′-bipiperidin]-1′-yl)-5-(3′-methyl-2′-oxo-2′,3′-dihydrospiro[cyclobutane-1,1′-pyrrolo[2,3-c]quinolin]-8′-yl)pyridin-3-yl)methanesulfonamide] | – | – | 1 to 100 | 0.5 to 1

The remaining lines, values ahead:

IC50 (ATM; [1]) [nM] | IC50 (DNA-PK; 20 μM ATP) [nM] | IC50 (ATM; [2]) [nM] | IC50 (DNA-PK; ATP 20 μM) [nM] | Structure (SMILES)
1 to 100 | 1 to 100 | – | – | COc1cccc([C@H]2C[C@]3(C2)C(=O)N(C)c2cnc4cc(F)c(-c5cnc(OCCNC(C)C)c(NS(C)(=O)=O)c5)cc4c23)n1 [Example 428, cis-N-(5-(7′-Fluoro-3-(6-methoxypyridin-2-yl)-3′-methyl-2′-oxo-2′,3′-dihydrospiro[cyclobutane-1,1′-pyrrolo[2,3-c]quinolin]-8′-yl)-2-(2-(isopropylamino)ethoxy)pyridin-3-yl)methanesulfonamide]
– | – | 1 to 100 | < 0.5 | CN(C)CCCOc1ncc(-c2ccc3ncc4c(c3c2)C2(CC2)C(=O)N4C)cc1NS(=O)(=O)c1cnn(C)c1 [Example 91, N-(2-(3-(Dimethylamino)propoxy)-5-(3′-methyl-2′-oxo-2′,3′-dihydrospiro [cyclopropane-1,1′-pyrrolo[2,3-c]quinolin]-8′-yl)pyridin-3-yl)-1-methyl-1H-pyrazole-4-sulfonamide]
1 to 100 | < 0.5 | – | – | CC(C)NCCOc1ncc(-c2cc3c4c(cnc3cc2F)N(C)C(=O)C42CN(c3ccc(Cl)cc3)C2)cc1NS(C)(=O)=O [Example 523, N-(5-(1-(4-Chlorophenyl)-7′-fluoro-3′-methyl-2′-oxo-2′,3′-dihydrospiro[azetidine-3,1′-pyrrolo[2,3-c]quinolin]-8′-yl)-2-(2-(isopropylamino)ethoxy)pyridin-3-yl)methanesulfonamide hydrochloride]
– | – | 0.5 to 1 | 0.5 to 1 | CNC1CN(c2ncc(-c3cc4c5c(cnc4cc3F)N(C)C(=O)C53CCC3)cc2NS(=O)(=O)C2CC2)C1 [Example 333, N-(5-(7′-Fluoro-3′-methyl-2′-oxo-2′,3′-dihydrospiro [cyclobutane-1,1′-pyrrolo [2,3-c]quinolin]-8′-yl)-2-(3-(methylamino)azetidin-1-yl)pyridin-3-yl)cyclopropanesulfonamide]
– | – | 1 to 100 | 1 to 100 | CCS(=O)(=O)Nc1cc(-c2ccc3ncc4c(c3c2)C2(CC2)C(=O)N4C)cnc1OCCCN(C)C [Example 61, N-(2-(3-(Dimethylamino)propoxy)-5-(3′-methyl-2′-oxo-2′,3′-dihydrospiro [cyclopropane-1,1′-pyrrolo[2,3-c]quinolin]-8′-yl)pyridin-3-ylethanesulfonamide hydrochloride]
– | – | 1 to 100 | 1 to 100 | CC1CCN(S(=O)(=O)Nc2cc(-c3ccc4ncc5c(c4c3)C3(CCC3)C(=O)N5C)cnc2OCCCN(C)C)CC1 [Example 165, N-(2-(3-(Dimethylamino)propoxy)-5-(3′-methyl-2′-oxo-2′,3′-dihydrospiro[cyclobutane-1,1′-pyrrolo[2,3-c]quinolin]-8′-yl)pyridin-3-yl)-4-methylpiperidine-1-sulfonamide]
– | – | 1 to 100 | 1 to 100 | CN1C(=O)C2(CCC2)c2c1cnc1ccc(-c3cnc(OCCCN4CCCC(O)C4)c(NS(C)(=O)=O)c3)cc21 (centres unmarked) [Example 270, N-(2-(3-(3-Hydroxypiperidin-1-yl)propoxy)-5-(3′-methyl-2′-oxo-2′,3′-dihydrospiro[cyclobutane-1,1′-pyrrolo[2,3-c]quinolin]-8′-yl)pyridin-3-yl)methanesulfonamide]
– | – | 1 to 100 | < 0.5 | CC(C#N)c1cccc(S(=O)(=O)Nc2cc(-c3ccc4ncc5c(c4c3)C3(CC3)C(=O)N5C)cnc2OCCCN(C)C)c1 (centres unmarked) [Example 46, 3-(1-Cyanoethyl))-N-((2-(3-(Dimethylamino)propoxy)-5-(3′-methyl-2′-oxo-2′,3′-dihydrospiro [cyclopropane-1,1′-pyrrolo[2,3-c]quinolin]-8′-yl)pyridin-3-yl)benzenesulfonamide]
– | – | 1 to 100 | < 0.5 | Cc1cc(S(=O)(=O)Nc2cc(-c3ccc4ncc5c(c4c3)C3(CCC3)C(=O)N5C)cnc2N2CCN(C)CC2)sn1 [Example 246, 3-Methyl-N-(5-(3′-methyl-2′-oxo-2′,3′-dihydrospiro[cyclobutane-1,1′-pyrrolo[2,3-c]quinolin]-8′-yl)-2-(4-methylpiperazin-1-yl)pyridin-3-yl)isothiazole-5-sulfonamide]
– | – | 1 to 100 | 1 to 100 | Cc1ccc(S(=O)(=O)Nc2cc(-c3ccc4ncc5c(c4c3)C3(CCC3)C(=O)N5C)cnc2N2CCC(N3CCCCC3)CC2)cc1 [Example 192, N-(2-(1,4-Bipiperidin]-1′-yl)-5-(3′-methyl-2′-oxo-2′,3′-dihydrospiro[cyclobulane-1,1′-pyrrolo[2,3-c]quinolin]-8′-yl)pyridin-3-yl)-4-methylbenzenesulfonamide hydrochloride]
– | – | 1 to 100 | 1 to 100 | COC1CCN(S(=O)(=O)Nc2cc(-c3ccc4ncc5c(c4c3)C3(CCC3)C(=O)N5C)cnc2OCCCN(C)C)CC1 [Example 187, N-(2-(3-(Dimethylamino)propoxy)-5-(3′-methyl-2′-oxo-2′,3′-dihydrospiro[cyclobulane-1,1′-pyrrolo[2,3-c]quinolin]-8′-yl)pyridin-3-yl)-4-methoxypiperidine-1-sulfonamide]
